# pIC50: −log10 of the molar value.
# Experiments:
# Mus musculus = species on record: Mus musculus; test: Inhibition of methyl phenidate induced stereotyped gnawing in mice; type: functional
# [1] = molecular target: Serotonin 2 (5-HT2) receptor (Rattus norvegicus, UniProt P30994+P08909+P14842); test: Inhibition of [3H]spiperone binding to 5-hydroxytryptamine 2 receptor from rat cortical membranes; type: cell membranes, Membrane
# Rattus norvegicus [2] = test: Percent reduction of blood pressure in spontaneously hypertensive rat after 10 min at intraperitoneal administration of 5 mg/kg; type: functional
# D(2) dopamine receptor = D(2) dopamine receptor (Rattus norvegicus, UniProt P61169); test: Inhibition of [3H]spiperone binding to Dopamine receptor D2 from rat striatal membranes; type: cell membranes, Membrane
# [3] = molecular target: T1, Adrenergic receptor alpha-1 (Rattus norvegicus, UniProt P15823+P23944+P43140); test: Inhibition of [3H]prazosin binding to alpha-1 adrenergic receptor from rat cortical membranes; type: cell membranes, Membrane
# T1 sequence (P15823 whole entry): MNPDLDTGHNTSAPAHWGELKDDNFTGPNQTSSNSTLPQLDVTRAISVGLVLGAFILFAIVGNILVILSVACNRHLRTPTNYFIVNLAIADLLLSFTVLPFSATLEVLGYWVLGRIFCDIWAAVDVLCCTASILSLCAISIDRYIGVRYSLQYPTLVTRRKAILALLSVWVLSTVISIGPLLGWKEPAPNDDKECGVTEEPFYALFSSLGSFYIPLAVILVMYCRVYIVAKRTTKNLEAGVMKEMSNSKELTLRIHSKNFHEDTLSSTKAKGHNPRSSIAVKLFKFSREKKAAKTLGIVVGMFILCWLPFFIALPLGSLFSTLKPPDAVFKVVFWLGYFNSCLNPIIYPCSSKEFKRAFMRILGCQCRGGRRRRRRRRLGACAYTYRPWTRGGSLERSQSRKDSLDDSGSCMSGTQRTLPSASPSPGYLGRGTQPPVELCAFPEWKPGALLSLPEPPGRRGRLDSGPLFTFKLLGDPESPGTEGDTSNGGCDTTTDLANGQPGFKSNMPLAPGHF
# T1 sequence (P23944 whole entry): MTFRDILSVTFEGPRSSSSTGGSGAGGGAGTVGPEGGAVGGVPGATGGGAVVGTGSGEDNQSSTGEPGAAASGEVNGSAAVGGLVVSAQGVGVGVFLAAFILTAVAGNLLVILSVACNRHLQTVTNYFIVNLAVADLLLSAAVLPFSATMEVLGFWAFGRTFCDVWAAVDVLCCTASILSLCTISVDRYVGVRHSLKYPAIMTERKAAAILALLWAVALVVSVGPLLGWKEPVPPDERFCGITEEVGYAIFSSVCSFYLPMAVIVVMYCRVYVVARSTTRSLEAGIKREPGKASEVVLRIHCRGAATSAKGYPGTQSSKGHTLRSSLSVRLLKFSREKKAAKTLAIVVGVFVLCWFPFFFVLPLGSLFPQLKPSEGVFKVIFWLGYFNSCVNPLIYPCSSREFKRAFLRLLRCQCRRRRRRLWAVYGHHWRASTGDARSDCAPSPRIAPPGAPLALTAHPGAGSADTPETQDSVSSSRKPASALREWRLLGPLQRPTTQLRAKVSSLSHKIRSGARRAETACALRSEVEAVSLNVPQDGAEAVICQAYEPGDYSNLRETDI
# T1 sequence (P43140 whole entry): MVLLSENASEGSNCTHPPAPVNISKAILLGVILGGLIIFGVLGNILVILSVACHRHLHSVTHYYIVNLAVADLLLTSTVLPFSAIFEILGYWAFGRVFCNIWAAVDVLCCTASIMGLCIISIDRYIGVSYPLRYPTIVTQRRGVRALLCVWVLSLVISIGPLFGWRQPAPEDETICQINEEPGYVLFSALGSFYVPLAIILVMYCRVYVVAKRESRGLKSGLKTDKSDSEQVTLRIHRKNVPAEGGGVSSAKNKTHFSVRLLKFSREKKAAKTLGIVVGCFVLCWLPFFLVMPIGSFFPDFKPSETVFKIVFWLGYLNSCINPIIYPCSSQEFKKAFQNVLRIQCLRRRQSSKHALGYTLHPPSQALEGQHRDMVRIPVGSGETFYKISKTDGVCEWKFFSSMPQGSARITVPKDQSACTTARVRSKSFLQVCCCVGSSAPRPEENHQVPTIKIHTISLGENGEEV
# Rattus norvegicus [4] = species on record: Rattus norvegicus; test: Inhibition of L-5-HTP (L-5-hydroxytryptophan) induced head twitches in rat; type: functional
# Rattus norvegicus [5] = species on record: Rattus norvegicus; test: Ratio of phenylephrine ED50/ 5-HT ED50; type: functional
# Rattus norvegicus [6] = test: Inhibition of 5-HT induced pressor response in pithed rats, after intravenous administration, activity is expressed as ED50; type: functional
# Rattus norvegicus [7] = test: Inhibition of phenylephrine induced pressor response in pithed rats (following i.v. administration of […]); type: functional; details: route intravenous
# Rattus norvegicus [8] = test: Inhibition of 5-HT induced pressor response in pithed rats, after intravenous administration of 0.02 mg/kg; type: functional
# Rattus norvegicus [9] = test: Inhibition of 5-HT induced pressor response in pithed rats, after intravenous administration; type: functional
# [10] = Rattus norvegicus, read-out: ED50
# Chain of D(2) dopamine receptor (P61169 whole entry): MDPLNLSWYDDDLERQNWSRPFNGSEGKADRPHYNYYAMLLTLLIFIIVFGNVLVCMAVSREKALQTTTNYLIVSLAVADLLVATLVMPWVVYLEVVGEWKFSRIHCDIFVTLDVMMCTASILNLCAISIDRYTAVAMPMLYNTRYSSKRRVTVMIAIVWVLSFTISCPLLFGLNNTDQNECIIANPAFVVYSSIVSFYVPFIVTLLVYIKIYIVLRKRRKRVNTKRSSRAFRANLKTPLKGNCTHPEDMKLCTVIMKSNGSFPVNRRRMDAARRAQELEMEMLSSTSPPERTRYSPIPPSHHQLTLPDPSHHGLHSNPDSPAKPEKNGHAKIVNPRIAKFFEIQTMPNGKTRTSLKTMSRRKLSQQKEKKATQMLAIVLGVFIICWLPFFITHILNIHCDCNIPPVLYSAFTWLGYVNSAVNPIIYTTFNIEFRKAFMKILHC
Structure (SMILES),ED50 (Mus musculus) [µmol/kg],IC50 [1] [nM],Reduction (Rattus norvegicus [2]) [%],pIC50 (D(2) dopamine receptor),IC50 [3] [nM],ED50 (Rattus norvegicus [4]; [10]) [µmol/kg],Ratio (Rattus norvegicus [5]),ED50 (Rattus norvegicus [6]) [µmol/kg],Change (Rattus norvegicus [7]) [%],Change (Rattus norvegicus [8]) [%],ED50 (Rattus norvegicus [9]) [µmol/kg],ED50 (Rattus norvegicus [4]) [µmol/kg]
CN1CCN(CCN2CCN(C3CC(c4ccc(F)cc4)c4ccccc43)CC2)C1=O.Cl.Cl.O (stereo not given),> 80,13,-6,,,,,,,,,
Fc1ccc([C@@H]2C[C@@H](N3CCN(CCN4CCN=C4S)CC3)c3cc(F)ccc32)cc1.O=C(O)/C=C\C(=O)O.O=C(O)/C=C\C(=O)O,,2.2,-32,7.54,13,,,,,,,
Fc1ccc(C2CC(N3CCN(CCN4CCN=C4S)CC3)c3ccccc32)cc1.O=C(O)/C=C\C(=O)O.O=C(O)/C=C\C(=O)O (stereo not given),> 61,3.3,-18,,,0.43,,,,,,
Cl.Cl.O.O=C1OCCN1CCN1CCN(C2CC(c3ccc(F)cc3)c3ccc(F)cc32)CC1 (stereo not given),,44,-20,,,,5.2,4.4,19,-27,,
CCN1CCN(CCN2CCN(C3CC(c4ccc(F)cc4)c4ccc(F)cc43)CC2)C1=O.Cl.Cl (stereo not given),> 75,4.8,4,7.60,34,,,,,,,
CN1CCN(CCN2CCN(C3CC(c4ccc(F)cc4)c4ccc(F)cc43)CC2)C1=O.Cl.Cl (stereo not given),> 78,3.3,-11,6.59,11,0.078,1300,13,,,0.01,
Cl.Cl.Oc1nc2ccccc2n1CCN1CCN(C2CC(c3ccc(F)cc3)c3ccc(F)cc32)CC1 (stereo not given),> 72,9.4,-15,7.60,160,,,,,,,
Fc1ccc(C2CC(N3CCN(CCN4CCCN=C4S)CC3)c3cc(F)ccc32)cc1.O=C(O)/C=C\C(=O)O.O=C(O)/C=C\C(=O)O (stereo not given),23,7.5,-13,7.29,,,,,,,,
Cl.Cl.O=C1OCCN1CCCN1CCN(C2CC(c3ccc(F)cc3)c3ccc(F)cc32)CC1 (stereo not given),,22,-12,7.52,,,,,,-32,,
O=C(O)/C=C\C(=O)O.O=C(O)/C=C\C(=O)O.O=C1NCCCN1CCN1CCN(C2CC(c3ccc(F)cc3)c3ccc(F)cc32)CC1 (stereo not given),> 59,11,0,,,,,,,,,
O=C(O)/C=C\C(=O)O.O=C(O)/C=C\C(=O)O.O=C1NCCN1CCN1CCN(C2CC(c3ccccc3)c3ccccc32)CC1 (stereo not given),> 64,12,,5.72,,,,,,,,26
O=C(O)/C=C\C(=O)O.O=C(O)/C=C\C(=O)O.O=C1NCCN1CCN1CCN([C@@H]2C[C@@H](c3ccccc3F)c3ccccc32)CC1,> 62,,-3,,,17,,,13,-18,,
Cl.Cl.OC1=NCCN1CCN1CCN(C2CC(c3ccc(Cl)cc3)c3ccccc32)CC1 (stereo not given),> 80,37,3,6.10,,40,,,15,13,,
O=C(O)/C=C\C(=O)O.O=C(O)/C=C\C(=O)O.O=C1NCCN1CCN1CCN([C@H]2C[C@H](c3ccccc3F)c3ccccc32)CC1,> 62,,-8,,,> 31,,,3,0,,
Cl.Cl.O=C1CCCN1CCN1CCN(C2CC(c3ccc(F)cc3)c3ccc(F)cc32)CC1 (stereo not given),,12,0,7.07,36,,,,,,,
O=C1NCCN1CCN1CCN([C@H]2C[C@H](c3ccccc3)c3ccccc32)CC1,,,-7,,,,,,0,-11,,
COc1ccc(C2CC(N3CCN(CCN4CCNC4=O)CC3)c3ccccc32)cc1 (stereo not given),> 95,250,3,4.82,1400,> 48,,,69,-19,,
CN1CCN(CCN2CCN([C@@H]3C[C@@H](c4ccc(F)cc4)c4ccc(F)cc43)CC2)C1=O,,10,-32,7.42,11,0.023,550,2.2,-29,,0.0043,
O=C1NCCN1CCN1CCN(C(=O)c2ccccc2)CC1,> 132,4800,6,< 6.00,,> 8.2,,,,,,
CN1CCN(C2CC(c3ccc(F)cc3)c3ccc(F)cc32)CC1 (stereo not given),11,7.7,-15,,22,0.079,,,-19,-85,,
OCCN1CCN(C2CC(c3ccc(F)cc3)c3ccccc32)CC1 (stereo not given),> 118,64,-27,6.17,62,0.46,10,3.4,-12,-15,0.33,
Fc1ccc(C2CC(N3CCN(CCN4CCN=C4S)CC3)c3cc(F)ccc32)cc1 (stereo not given),,4.9,-10,,,,370,,,,0.01,
O=C1NCCN1CCN1CCN(C(=O)c2ccc(F)cc2)CC1,> 125,58000,11,< 6.00,,1.8,,,,,,
O=C1NCCN1CCN1CCN(Cc2ccccc2)CC1,> 139,> 1000,15,< 6.00,> 10000,> 4.3,,,,,,
Fc1ccc(C2CC(N3CCNCC3)c3ccccc32)cc1 (stereo not given),> 108,30,10,5.72,100,2.5,,,7,-13,,
O=C(c1ccc(F)cc1)C1CCN(CCn2c(=O)[nH]c3ccccc3c2=O)CC1 [KETANSERIN],> 101,,-32,5.74,15,0.79,,3.2,-14,-62,0.024,
COc1cc2nc(N3CCN(C(=O)c4ccco4)CC3)nc(N)c2cc1OC [PRAZOSIN],> 95,,-32,,,0.45,,0.0095,-100,0,> 12,
Cc1nc2sccn2c(=O)c1CCN1CCC(=C(c2ccc(F)cc2)c2ccc(F)cc2)CC1 [RITANSERIN],> 84,,10,,47,1.2,,,16,-95,,

# Source: ChEMBL document CHEMBL1124016, “Antihypertensive activity in a series of 1-piperazino-3-phenylindans with potent 5-HT2-antagonistic activity” (J Med Chem, 1988)
